Laboratory results published in PubChem BioAssay (NCI).
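Test compounds were applied to cells in 96-well plates for 48 hours at 5 doses. Here, GI50 denotes the concentration required for 50% inhibition of growth. TGI denotes the concentration required for complete inhibition of growth.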

Tests used:
Assay in all cases: NCI tumour cell line growth inhibition, 48 h
HT29 colon = test system: HT29 colon
MALME-3M melanoma = test system: MALME-3M melanoma
NCI-H460 lung = test system: NCI-H460 lung
U251 CNS = test system: U251 CNS
SK-MEL-28 melanoma = test system: SK-MEL-28 melanoma
COLO 205 colon = test system: COLO 205 colon
RXF 393 renal = test system: RXF 393 renal
SNB-75 CNS = test system: SNB-75 CNS
786-0 renal = test system: 786-0 renal
IGROV1 ovarian = test system: IGROV1 ovarian

| SMILES | TGI (HT29 colon) | TGI (MALME-3M melanoma) | TGI (NCI-H460 lung) | TGI (U251 CNS) | TGI (SK-MEL-28 melanoma) | TGI (COLO 205 colon) | TGI (RXF 393 renal) | GI50 (HT29 colon) | GI50 (NCI-H460 lung) | GI50 (U251 CNS) | GI50 (SNB-75 CNS) | TGI (SNB-75 CNS) | GI50 (COLO 205 colon) | GI50 (RXF 393 renal) | TGI (786-0 renal) | TGI (IGROV1 ovarian) | GI50 (IGROV1 ovarian) | GI50 (MALME-3M melanoma) | GI50 (SK-MEL-28 melanoma) |
| --- | --- | --- | --- | --- | --- | --- | --- | --- | --- | --- | --- | --- | --- | --- | --- | --- | --- | --- | --- |
| c1ccc(Sc2nc(Sc3ccccc3)nc(Sc3ccccc3)n2)cc1 | > 100 µM | > 100 µM | > 100 µM | > 100 µM | > 100 µM | 38.7 µM | > 100 µM |  |  |  |  |  |  |  |  |  |  |  |  |
| COC1=CC(c2ccc[nH]2)=N/C1=C\c1[nH]c(C)c(C)c1CCC(=O)OCc1ccccc1 | 1.36 µM |  | 10.8 µM | 1.52 µM |  | 1.15 µM | 1.83 µM | 0.191 µM | 0.623 µM | 0.322 µM | 0.226 µM | 0.728 µM | 0.257 µM | 0.496 µM |  |  |  |  |  |
| Cc1ccc(O)cc1 (tested in a mixture with another compound) | > 100 µM | > 100 µM | > 100 µM | > 100 µM | > 100 µM | > 100 µM | > 100 µM |  |  |  |  |  |  |  | > 100 µM | > 100 µM |  |  |  |
| COC(=O)CN(CC1O[C@@H]2OC(C)(C)O[C@@H]2C1NC(C)=O)C(=O)OCc1ccccc1 (some centres undefined) | > 100 µM |  | > 100 µM | > 100 µM | > 100 µM | > 100 µM |  |  |  |  |  | > 100 µM |  |  | > 100 µM | > 100 µM |  |  |  |
| Brc1ccc(C[N+]23CN4CN(CN(C4)C2)C3)cc1 |  | 71.5 µM | > 100 µM | > 100 µM | > 100 µM | 69.4 µM | 34.6 µM |  |  |  |  | > 100 µM |  |  | > 100 µM | > 100 µM |  |  |  |
| CCOC(=O)CCC(C(=O)OCC)n1nnc2ccc(Nc3c(C)[n+]([O-])c4cc(F)c(OCC)cc4[n+]3[O-])cc21 (centres undefined) | > 100 µM | > 100 µM | > 100 µM | > 100 µM |  | 83.5 µM | > 100 µM |  |  |  |  | > 100 µM |  |  | > 100 µM | > 100 µM |  |  |  |
| COC(=O)C1CCCN1C(=O)OC(C)(C)C (centres undefined) | > 100 µM |  | > 100 µM | > 100 µM | > 100 µM | > 100 µM | > 100 µM |  |  |  |  | > 100 µM |  |  | > 100 µM | > 100 µM |  |  |  |
| CN1CCN(Cn2nc(-c3cc(F)c(Cl)cc3Cl)oc2=S)CC1 | 54.7 µM | 74.1 µM | > 100 µM | > 100 µM | > 100 µM | 51.6 µM | 93.8 µM | 24.5 µM | 41.2 µM | 35.1 µM | 53.3 µM | > 100 µM | 23.6 µM | 32.5 µM |  | > 100 µM | 37.1 µM | 26.4 µM | 28.6 µM |
| CCC1OC2C(CC=C(C)C)=C3OC(C)(O)C(C)(CC)C(=O)C3=C3OC(=O)C=C1C32 (centres undefined) |  |  | 92.5 µM | > 100 µM | > 100 µM | 37 µM |  |  |  |  |  |  |  |  | > 100 µM |  |  |  |  |
| O=C(NCCCc1cn[nH]c(=O)n1)c1cccc2nc3ccccc3nc12 | > 100 µM | > 100 µM | > 100 µM | > 100 µM | > 100 µM | > 100 µM | > 100 µM |  |  |  |  |  |  |  | > 100 µM | > 100 µM |  |  |  |
| CCOC(=O)[C@@]12NN=N[C@@H]1[C@H]1CO[C@H](c3ccccc3)N1C2=O | 32.4 µM | 26.8 µM | 20.5 µM | 18.4 µM | 19.5 µM | 23.5 µM | 13.9 µM |  |  |  |  |  |  |  | 30.3 µM | 20.3 µM |  |  |  |
| Cc1ccc(S(=O)(=O)NCCCSCCO)cc1 | > 100 µM |  | > 100 µM | > 100 µM | > 100 µM | > 100 µM | > 100 µM |  |  |  |  | > 100 µM |  |  |  |  |  |  |  |
| CCc1n[nH]c(=O)n1N=C(c1ccccc1)c1ccccc1 | > 100 µM | > 100 µM | > 100 µM | > 100 µM | > 100 µM | > 100 µM | > 100 µM |  |  |  |  |  |  |  | > 100 µM | > 100 µM |  |  |  |
| O=P(Nc1cccc(Cl)c1)(Oc1ccccc1)N(CCCl)CCCl (centres undefined) | 28.4 µM | 28.5 µM |  | 28.3 µM | 30.5 µM | 29.3 µM |  |  |  |  |  | 30.4 µM |  |  |  | 30.4 µM |  |  |  |
| CCOC(=O)c1cc([N+](=O)[O-])cc([N+](=O)[O-])c1Sc1ncnc2nc[nH]c12 | 15.3 µM |  | 33.9 µM | 24.8 µM | 11.2 µM | 5.03 µM | 3.29 µM |  |  |  |  | 25.1 µM |  |  | 2.07 µM | 6.13 µM |  |  |  |
| CCSc1[nH]c(NC(=NC(C)C)NC(=O)c2ccccc2)c(C(N)=O)c1C(N)=O | > 10 µM | > 10 µM |  |  | > 10 µM | > 10 µM | > 10 µM |  |  |  |  | > 10 µM |  |  | > 10 µM | > 10 µM |  |  |  |
